From patent publication US20070203202A1, “Methods of reducing adverse events associated with pirfenidone therapy” (priority 2005, published 2007)
Read-outs that look alike come from different tables or passages of the source.

Columns and labels:
[1] = Single-dose four-treatment crossover study of the effect of food and antacid on adverse events; type: in vivo, human; details: for subjects who experienced an adverse event: single oral dose 3×267 mg, 16 healthy adults
Description: (§1) A study was designed to evaluate the effect of food, antacids, and food taken with antacids on adverse events associated with pirfenidone use. The trial was conducted as a randomized, open-label, four-treatment crossover, with a single dose for each treatment period and a 2-day washout period between study treatments. 16 healthy adults between the ages of 50 and 79 years having body mass indices between 18 and 30 (inclusive) were enrolled and completed all 4 treatment arms. The treatment arms were as follows:
A) pirfenidone alone (Fasted);
B) pirfenidone within 1 minute following a dose of antacid (20 mL Mylanta® Maximum Strength Liquid) (Fasted+Antacid);
C) pirfenidone 5 minutes after completing a standard meal (Fed); and
D) pirfenidone 5 minutes after completing a standard meal, then within 1 minute, followed by a dose of antacid (Fed+Antacid).
(§2) All subjects were admitted to the clinic for clinical evaluation the day prior to receiving the first dose of the study medication and remained confined for 13 days. Following an overnight fast of at least 10 hours (h), subjects were randomized to one of the above-described 4 treatment sequences. Each dose of pirfenidone (3×267 mg capsules) was administered orally with 240 mL room temperature water on days 1, 4, 7, and 10 in the morning, following an overnight fast of at least 10 hours. The washout period between treatments was 2 days. A standard meal consisted of 2 fried eggs, 2 strips of bacon, 2 slices of toast, 2 pats of butter, hash brown potatoes (4 oz), and whole milk (8 oz).
On each study day, adverse events were reviewed with the patients as follows. Before administration of the first dose of the study drug, study site personnel noted the occurrence and nature of each subject's medical condition(s). During the trial, site personnel again noted any change in the condition(s) or occurrence and nature of any adverse events. The severity of adverse events were graded based on the Modified Common Toxicity Criteria and the relationship of the study drug to the adverse event determined.

[2] = Pharmacokinetics of an 801 mg pirfenidone dose taken with or without food; type: in vivo, human; details: for half-life: human, plasma, oral, 801 mg, read-out: mean absorption half life (converted)
Description: as §1, §2
Of 7 subjects who reported nausea, 5 of 16 (31%) were fasted compared to only 2 of 16 (13%) fed subjects. Of 5 subjects reporting dizziness, 4 of 16 (25%) were fasted, while only 1 of 16 (6%) was fed. Of 3 subjects reporting somnolence, 2 of 16 (13%) were fasted and 1 of 16 (6%) were fed. Of 3 subjects reporting headaches, 2 of 16 (13%) were fasted and 1 of 16 (6%) were fed.

[3] = Multiple-dose escalating-dose study of adverse events, doses taken with food; type: in vivo, human; details: 801 to 4005 mg/day escalating
Description: A second study was designed to examine incidences of adverse events on multiple ascending daily doses of pirfenidone. The trial was conducted as an open-label, escalating-dose study with no washout period between dose escalations. 25 healthy adults between the ages of 45 and 79 (inclusive) having body mass indices between 18 and 30 (inclusive) were enrolled. 22 adults completed the treatment. Each volunteer received from 801 mg/day to 4005 mg/day of pirfenidone divided into three equal doses as follows:
All subjects were admitted to the clinic for clinical evaluation the day before the first dose of study medication and remained confined for 17 days. Each subject received all dose levels of the study drug unless adverse events or the clinical judgment of the trial physician precluded the continuation of treatment. All doses were taken with 240 mL room temperature water and with food (excluding grapefruit juice). TID doses times were ˜0800, ˜1200, and ˜1800.

[4] = system: fibrogenic cytokines such as TGF-β1, bFGF, PDGF, and EGF; details: Zhang S et al. 1998; cited from earlier work
TNF-α = details: macrophages and other cells; Cain et al. 1998; cited from earlier work
[5] = 801 mg pirfenidone without food

Cc1ccc(=O)n(-c2ccccc2)c1 [pirfenidone, 5-methyl-1-phenyl-2-(1H)-pyridone]
incidence of somnolence ([1]; all arms, 4 of 16): 25%
incidence of dizziness ([1]; all arms, 6 of 16): 38%
incidence of nausea ([1]; all arms, 7 of 16): 44%
subjects with adverse events in whom the adverse events were mild ([1]; all arms, 8 of the 12 subjects with an adverse event): 66.7%
subjects with at least 1 adverse event in total ([1]; all four treatment arms, 12 of 16 subjects): 75%
incidence of headaches ([1]; fasted, 2 of 16): 13%
incidence of somnolence ([1]; fasted, 2 of 16): 13%
incidence of dizziness ([1]; fasted, 4 of 16): 25%
incidence of nausea ([1]; fasted, 5 of 16): 31%
incidence of dizziness ([1]; fed, 1 of 16): 6%
incidence of headaches ([1]; fed, 1 of 16): 6%
incidence of somnolence ([1]; fed, 1 of 16): 6%
incidence of nausea ([1]; fed, 2 of 16): 13%
subjects who experienced an adverse event ([1]; pirfenidone alone without food (Fasted)): 56.3%
subjects who experienced an adverse event ([1]; with food (Fed)): 31.3%
subjects who experienced an adverse event ([1]; with food and antacid (Fed+Antacid)): 25%
subjects who experienced an adverse event ([1]; within 1 minute following a dose of antacid (Fasted+Antacid)): 56.3%
mean maximum plasma concentration ([2]; 801 mg pirfenidone with food): 7874 ng/mL
mean maximum plasma concentration [2, 5]: 15724 ng/mL
half-life ([2]; 801 mg pirfenidone with food): 1.78 h
half-life [2, 5]: 0.572 h
subjects with at least one adverse event ([3]; TID with food, 23 of 25 healthy adults): 92%
incidence of headache ([3]; with food, 7 of 25): 28%
incidence of somnolence ([3]; with food, 8 of 25): 32%
incidence of nausea ([3]; with food, 9 of 25): 36%
subjects with adverse events in whom the adverse events were mild ([3]; with food, 22 of the 23 subjects): 95%
effect on biosynthesis or release of fibrogenic cytokines [4]: inhibits excessive biosynthesis or release
effect on synthesis and release of TNF-α (TNF-α): blocks the synthesis and release of excessive amounts of TNF-α
